Results: patent US20040049009A1, “Methods for improving the antagonistic/agonistic properties of peptidic antagonists/agonists of the corticotropin-releasing factor receptor (crfr)” (priority 2000, published 2004)

Experiments:
[1] = target: T1, rCRFR1 (Rattus norvegicus, UniProt P35353); experiment: Competitive binding to rCRFR1, SPA on HEK-293 membrane fractions with [125I-Tyr0]h/rCRF; settings: binding affinities CRFR1 vs CRFR2
T1 sequence (P35353 24-415): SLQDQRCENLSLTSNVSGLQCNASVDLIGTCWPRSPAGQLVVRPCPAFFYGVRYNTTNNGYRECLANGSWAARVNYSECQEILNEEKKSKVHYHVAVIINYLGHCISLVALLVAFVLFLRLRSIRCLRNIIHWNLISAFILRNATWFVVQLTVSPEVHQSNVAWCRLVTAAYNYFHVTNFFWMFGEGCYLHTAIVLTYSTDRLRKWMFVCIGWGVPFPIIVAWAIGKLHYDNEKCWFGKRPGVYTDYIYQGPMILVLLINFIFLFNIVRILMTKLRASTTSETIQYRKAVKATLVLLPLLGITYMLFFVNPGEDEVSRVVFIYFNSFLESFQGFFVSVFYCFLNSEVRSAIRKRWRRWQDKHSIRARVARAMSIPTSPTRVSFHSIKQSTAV
Protocol: (§1) The SPA assay for rCRFR1 and rCRFR2β was performed in 96-well microtiter plates. […] After 1 hour shaking 250 mg wheat germ agglutinin beads per well were added and the plates were counted in a microbeta scintillation counter (Wallac). cAMP accumulation was measured using the SPA based Biotrack assay (Amersham).
Binding of CRF-like peptides to rCRFBP was carried out with an SPA assay in nickel-chelate-coated 96-well microtiter plates (Flash Plate PLUS™, NEN), which bound rCRFBP tagged with a C-terminal His6 sequence (rCRFBP-His6). The scintillator beads carrying the Ni 2+ ions for binding of the His tag were located at the inner surface of the wells of this microtiterplate. […] The plates were sealed and incubated for four hours at room temperature. The radioactivities in the microtiterplates were counted in a Wallac 1450 Microbeta scintillation counter by detection of the light emitted from the scintillator beads. In both SPA systems the detection of the radioligand.8 depended on its proximity to the beads containing the scintillator. […] The major portion of counted radioactivity (>70%) represented specific binding that was because of radiolabeled ligand specifically bound to CRFBP or CRFR. […] Binding data were analyzed using the Prism computer program (GraphPad Software, San Diego).

[2] = tested on: C57BL/6J mice; experiment: Elevated plus-maze test, icv injection, oCRF-induced behavior; type: in vivo, mouse
Protocol: The antagonists and agonists were injected icv 30 and 15 min, respectively, before exposure to the elevated plus-maze for 5 min.
Ten min later the animals received 90 ng oCRF, and after 30 min, their behavior was recorded in the elevated plus maze test.
Alternatively, the elevated plus-maze behavior of C57BL/6J mice cannulated in the lateral ventricles (Radulovic, J., Rühmann, A., Liepold, T & Spiess, J. (1999) J.Neurosci. 19, 5016-5025) was investigated 15 min after injection of ovine CRF (oCRF) in the elevated plus-maze test (Radulovic, J., Kammermeier, J. & Spiess, J. (1998) Behav.Brain Res. 95, 179-189.).Peptide concentrations were determined by amino acid analysis (Radulovic, J., Rühmann, A., Liepold, T. & Spiess, J. (1999) J.Neurosci. 19, 5016-5025). CRF antagonists in aCSF as vehicle or vehicle alone were injected 30 min prior to oCRF administration. The behavior of the mice was recorded by a video camera connected to a PC and analyzed by the software VideoMot 2 (Technical &Scientific Equipment). The time spent, distance crossed, and number of entries in the open arms, closed arms, and center were recorded. The cannular placement was confirmed for each mouse by histological examination of the brains after methylene blue injection (Radulovic, J., Rühmann, A., Liepold, T. & Spiess, J. (1999) J.Neurosci. 19, 5016-5025). The behavioral data were analyzed by t tests or ANOVA followed by post hoc Scheffe's test for multiple comparisons. Data are presented as mean±SEM. The shift of preference from the open to the closed arms is interpreted as an increase of anxiety-like behavior. Locomotor activity is determined with this assay by the distance traveled.

[3] = target: T2, mCRFR2β (Mus musculus, UniProt Q60748); experiment: Intracellular cAMP accumulation in mCRFR2β-HEK 293 cells; type: cell-based; settings: for Rel. intrinsic activity mCRFR2β: cAMP after 1 μM antagonist relative to Svg stimulation, 95% CI in parentheses; for Rel. potency of antagonist mCRFR2β: inhibition of cAMP accumulation after 1 nM Svg
T2 construct: expressed in transfected cells
Protocol: as §1

[4] = target: T1, rCRFR1
[5] = Isoelectric focusing (IEF); type: physicochemical; settings: determined by isoelectric focussing
Protocol: Isoelectric focusing (IEF) was carried out with a BioRad IEF cell system using Biorad IEF strips (11 cm, pH range from 3 to 10). The system was cooled to 20° C. Calibration was performed with 80 μg of Sigma IEF mix 3.6-9.3 dissolved in 200 μl water containing 0.2% Bio-Lyte® 3/10 and 0.1% NP40. Twenty five μg of each peptide was dissolved in 200 μl water containing 0.2% Bio-Lyte® 3/10,0.1% NP40, and 10 mM DTT.IEF gels were placed in the chamber containing the peptide solution. The IEF gels were initially rehydrated for 12 hours at 50 V. Focusing of the peptides was achieved by application of a linear voltage gradient starting at 250 V and reaching 8000 V in 2.5 hours. The gels were then exposed to 8000 V for 4.5 hours. Subsequently, the IEF gels were stained in the BioRad IEF gel staining solution and destained in a mixture of 10% acetic acid, 40% methanol, and 50% water.

T2 sequence (Q60748 1-431 isoform Q60748-2): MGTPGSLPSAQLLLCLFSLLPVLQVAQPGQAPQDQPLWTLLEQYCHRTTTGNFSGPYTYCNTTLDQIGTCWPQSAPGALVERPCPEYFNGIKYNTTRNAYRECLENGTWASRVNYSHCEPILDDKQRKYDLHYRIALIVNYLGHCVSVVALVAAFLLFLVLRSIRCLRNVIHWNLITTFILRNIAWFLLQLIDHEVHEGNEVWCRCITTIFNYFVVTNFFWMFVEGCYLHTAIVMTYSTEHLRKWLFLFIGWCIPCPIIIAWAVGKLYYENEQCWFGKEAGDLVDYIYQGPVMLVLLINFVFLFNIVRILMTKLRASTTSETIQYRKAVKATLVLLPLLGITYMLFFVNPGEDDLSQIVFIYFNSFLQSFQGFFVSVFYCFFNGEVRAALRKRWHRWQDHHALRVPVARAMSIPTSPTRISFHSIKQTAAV

h/rCRF
selectivity favoring CRFR1 (over CRFR2), factor [1]: 30

α-helical CRF^9-41 [α-hel-CRF^9-41]
change of oCRF-induced behavioral effects in plus-maze test ([2]; 120 pmol antagonist icv before 35 pmol oCRF): no significant change
Rel. intrinsic activity mCRFR2β [3]: 1.4 (1.2-1.5) %
Rel. potency of antagonist mCRFR2β [3]: 97 (96-97) %
Emax [4]: 19%

anti-sauvagine-30 [aSvg-30]
Rel. intrinsic activity mCRFR2β [3]: 1.0 (0.9-1.1) %
Rel. potency of antagonist mCRFR2β [3]: 99 (98-99) %
Emax [4]: 6.5%

oCRF
effect on oCRF-elicited anxious behavior in elevated plus maze (Example 9) ([2]; 220 ng [E11]Ast icv, 10 min later 90 ng oCRF, threefold molar excess): elicited anxious behavior
anxiety-like behavior (open arm visits, % time in open arms) ([2]; icv 20 pmol (90 ng) oCRF): enhanced
locomotion (total distance crossed) in elevated plus-maze ([2]; icv 20 pmol (90 ng) oCRF): markedly decreased
behavior effects at higher agonist dose ([2]; icv 35 pmol (170 ng) oCRF): significantly enhanced

CC[C@H](C)[C@H](NC(=O)[C@@H](NC(=O)[C@H](CC(=O)O)NC(=O)[C@H](CC(C)C)NC(=O)[C@H](CC(C)C)NC(=O)[C@H](CC(C)C)NC(=O)[C@H](CCCNC(=N)N)NC(=O)[C@H](CC(N)=O)NC(=O)[C@H](CC(N)=O)NC(=O)[C@H](C)NC(=O)[C@H](C)NC(=O)[C@H](CCC(N)=O)NC(=O)[C@H](CCC(N)=O)NC(=O)[C@H](CCCCN)NC(=O)[C@H](CCC(=O)O)NC(=O)[C@H](CCCCN)NC(=O)[C@H](CCC(=O)O)NC(=O)[C@H](CCC(N)=O)NC(=O)[C@H](CCCCN)NC(=O)[C@H](CCC(=O)O)NC(=O)[C@@H](NC(=O)[C@H](CCC(=O)O)NC(=O)[C@@H](NC(=O)[C@H](CCSC)NC(=O)[C@H](CCCCN)NC(=O)[C@H](CCCNC(=N)N)NC(=O)[C@H](CC(C)C)NC(=O)[C@H](CC(C)C)NC(=O)[C@H](CCC(=O)O)NC(=O)[C@H](CC(C)C)NC(=O)[C@H](CO)NC(=O)[C@H](CC(C)C)NC(=O)[C@H](CC(=O)O)NC(=O)[C@@H](NC(=O)[C@H](CO)NC(=O)[C@@H](NC(=O)[C@@H]1CCCN1C(=O)[C@@H]1CCCN1C(=O)CNC(=O)[C@@H]1CCC(=O)N1)[C@@H](C)CC)[C@@H](C)CC)[C@@H](C)CC)[C@@H](C)CC)[C@@H](C)O)C(N)=O [Svg, sauvagine]
Isoelectric point [5]: 5.1
